{
  "source": "ChEMBL document CHEMBL4330132",
  "about": "“5-Keto-3-cyano-2,4-diaminothiophenes as selective maternal embryonic leucine zipper kinase inhibitors” (Bioorg Med Chem Lett, 2019)",
  "key": {"[1]": {"system": "Tyrosine-protein kinase ABL1 (Homo sapiens), P00519 [E255K]", "sequence (P00519 whole entry E255K, the tested form may be a part)": "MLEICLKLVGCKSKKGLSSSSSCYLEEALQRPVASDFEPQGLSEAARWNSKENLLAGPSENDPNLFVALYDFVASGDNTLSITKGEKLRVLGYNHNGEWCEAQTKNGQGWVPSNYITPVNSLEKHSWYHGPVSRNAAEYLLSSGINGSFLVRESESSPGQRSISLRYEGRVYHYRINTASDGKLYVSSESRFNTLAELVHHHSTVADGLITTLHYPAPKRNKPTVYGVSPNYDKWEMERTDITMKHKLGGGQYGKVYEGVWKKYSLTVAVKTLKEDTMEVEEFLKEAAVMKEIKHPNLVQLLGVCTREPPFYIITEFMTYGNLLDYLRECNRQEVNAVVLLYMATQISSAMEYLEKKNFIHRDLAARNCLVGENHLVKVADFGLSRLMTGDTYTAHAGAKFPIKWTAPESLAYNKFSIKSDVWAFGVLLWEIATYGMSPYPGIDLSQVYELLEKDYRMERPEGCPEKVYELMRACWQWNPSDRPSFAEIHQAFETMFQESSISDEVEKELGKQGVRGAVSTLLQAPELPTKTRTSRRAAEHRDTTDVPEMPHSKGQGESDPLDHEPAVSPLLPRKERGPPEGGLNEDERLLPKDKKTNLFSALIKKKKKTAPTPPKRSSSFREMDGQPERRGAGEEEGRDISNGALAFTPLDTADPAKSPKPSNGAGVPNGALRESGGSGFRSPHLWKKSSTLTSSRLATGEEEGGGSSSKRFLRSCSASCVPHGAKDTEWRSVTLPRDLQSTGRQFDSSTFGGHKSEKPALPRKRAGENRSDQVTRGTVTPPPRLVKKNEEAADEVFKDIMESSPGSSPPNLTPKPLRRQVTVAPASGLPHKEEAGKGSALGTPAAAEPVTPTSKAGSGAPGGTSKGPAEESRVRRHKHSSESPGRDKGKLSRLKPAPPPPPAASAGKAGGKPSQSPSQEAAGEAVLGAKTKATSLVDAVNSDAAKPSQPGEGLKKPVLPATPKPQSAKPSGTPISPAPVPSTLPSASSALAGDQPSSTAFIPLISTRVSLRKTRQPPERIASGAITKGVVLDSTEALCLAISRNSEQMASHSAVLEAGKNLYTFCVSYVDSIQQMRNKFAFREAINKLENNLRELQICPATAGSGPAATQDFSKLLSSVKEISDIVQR", "assay": "Binding affinity to human phosphorylated ABL1 E255K mutant (S229 to K512 residues) expressed in mammalian expression system assessed as residual binding level at 1 uM by Kinomescan method relative to control"}, "[2]": {"molecular_target": "Ankyrin repeat and protein kinase domain-containing protein 1 (Homo sapiens) (UniProt Q8NFD2)", "assay": "Binding affinity to wild-type human partial length ANKK1 (M1 to A305 residues) expressed in mammalian expression system assessed as residual binding level at 1 uM by Kinomescan method relative to control"}, "[3]": {"molecular_target": "Calcium/calmodulin-dependent protein kinase type 1 (Homo sapiens) (UniProt Q14012)", "assay": "Binding affinity to wild-type human full length CAMK1 (M1 to L370 residues) expressed in bacterial expression system assessed as residual binding level at 1 uM by Kinomescan method relative to control"}, "[4]": {"molecular_target": "Peripheral plasma membrane protein CASK (Homo sapiens) (UniProt O14936)", "assay": "Binding affinity to wild-type human partial length CASK (M1 to H315 residues) expressed in mammalian expression system assessed as residual binding level at 1 uM by Kinomescan method relative to control"}, "[5]": {"molecular_target": "Cyclin-dependent kinase 5 (Homo sapiens) (UniProt Q00535)", "assay": "Binding affinity to wild-type human full length CDK5 (M1 to P292 residues) expressed in bacterial expression system assessed as residual binding level at 1 uM by Kinomescan method relative to control"}, "[6]": {"molecular_target": "Dual specificity protein kinase CLK2 (Homo sapiens) (UniProt P49760)", "assay": "Binding affinity to wild-type human partial length CLK2 (D144 to R498 residues) expressed in bacterial expression system assessed as residual binding level at 1 uM by Kinomescan method relative to control"}, "[7]": {"molecular_target": "Casein kinase I isoform gamma-1 (Homo sapiens) (UniProt Q9HCP0)", "assay": "Binding affinity to wild-type human partial length CSNK1G1 (T15 to S353 residues) expressed in bacterial expression system assessed as residual binding level at 1 uM by Kinomescan method relative to control"}, "[8]": {"molecular_target": "Glycogen synthase kinase-3 alpha (Homo sapiens) (UniProt P49840)", "assay": "Binding affinity to wild-type human full length GSK3A (M1 to S483 residues) expressed in bacterial expression system assessed as residual binding level at 1 uM by Kinomescan method relative to control"}, "[9]": {"molecular_target": "Homeodomain-interacting protein kinase 1 (Homo sapiens) (UniProt Q86Z02)", "assay": "Binding affinity to wild-type human partial length HIPK1 (M146 to I555 residues) expressed in mammalian expression system assessed as residual binding level at 1 uM by Kinomescan method relative to control"}, "[10]": {"molecular_target": "Mitogen-activated protein kinase kinase kinase 1 (Homo sapiens) (UniProt Q13233)", "sequence (Q13233 whole entry, the tested form may be a part)": "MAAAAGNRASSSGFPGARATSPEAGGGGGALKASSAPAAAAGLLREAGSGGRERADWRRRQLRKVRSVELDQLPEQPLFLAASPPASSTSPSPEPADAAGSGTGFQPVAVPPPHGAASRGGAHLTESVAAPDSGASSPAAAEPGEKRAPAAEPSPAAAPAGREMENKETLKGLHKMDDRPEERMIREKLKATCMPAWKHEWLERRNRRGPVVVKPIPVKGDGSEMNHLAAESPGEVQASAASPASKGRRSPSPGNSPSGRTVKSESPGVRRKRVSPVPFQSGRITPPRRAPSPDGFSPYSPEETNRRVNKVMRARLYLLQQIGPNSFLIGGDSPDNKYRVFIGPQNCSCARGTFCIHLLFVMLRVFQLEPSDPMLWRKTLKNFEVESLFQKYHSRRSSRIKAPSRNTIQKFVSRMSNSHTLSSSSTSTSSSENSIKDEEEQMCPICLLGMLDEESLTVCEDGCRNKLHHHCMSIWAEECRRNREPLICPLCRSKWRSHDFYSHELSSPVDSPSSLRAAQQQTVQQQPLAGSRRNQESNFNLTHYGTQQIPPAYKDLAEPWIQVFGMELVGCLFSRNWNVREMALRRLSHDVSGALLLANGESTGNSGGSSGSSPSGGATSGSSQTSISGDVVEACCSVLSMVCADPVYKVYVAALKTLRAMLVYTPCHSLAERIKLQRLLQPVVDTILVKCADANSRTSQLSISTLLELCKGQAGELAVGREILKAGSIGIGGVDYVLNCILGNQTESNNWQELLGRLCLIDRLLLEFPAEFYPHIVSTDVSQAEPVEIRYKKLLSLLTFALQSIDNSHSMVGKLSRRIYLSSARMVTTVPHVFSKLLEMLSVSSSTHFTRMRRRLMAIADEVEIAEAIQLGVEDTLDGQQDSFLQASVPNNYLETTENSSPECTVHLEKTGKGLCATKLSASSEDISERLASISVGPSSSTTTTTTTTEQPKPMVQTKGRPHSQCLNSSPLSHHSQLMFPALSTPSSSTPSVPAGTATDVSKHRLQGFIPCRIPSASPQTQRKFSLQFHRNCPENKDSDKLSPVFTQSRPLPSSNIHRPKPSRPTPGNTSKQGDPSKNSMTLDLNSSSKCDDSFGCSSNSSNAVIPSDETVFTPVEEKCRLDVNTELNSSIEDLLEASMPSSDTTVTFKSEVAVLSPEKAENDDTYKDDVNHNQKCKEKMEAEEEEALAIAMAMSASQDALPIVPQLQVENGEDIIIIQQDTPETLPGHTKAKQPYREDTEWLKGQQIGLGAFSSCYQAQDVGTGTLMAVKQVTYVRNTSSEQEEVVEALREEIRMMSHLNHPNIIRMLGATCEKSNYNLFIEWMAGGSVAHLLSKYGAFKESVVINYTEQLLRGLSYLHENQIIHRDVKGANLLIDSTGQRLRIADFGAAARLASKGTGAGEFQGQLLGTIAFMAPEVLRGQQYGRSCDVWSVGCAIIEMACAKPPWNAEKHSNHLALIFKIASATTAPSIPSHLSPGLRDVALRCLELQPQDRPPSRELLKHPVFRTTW", "assay": "Binding affinity to wild-type human partial length MAP3K1 (L1202 to W1512 residues) expressed in mammalian expression system assessed as residual binding level at 1 uM by Kinomescan method relative to control"}, "[11]": {"molecular_target": "Mitogen-activated protein kinase kinase kinase 15 (Homo sapiens) (UniProt Q6ZN16)", "assay": "Binding affinity to wild-type human partial length MAP3K15 (T625 to L932 residues) expressed in mammalian expression system assessed as residual binding level at 1 uM by Kinomescan method relative to control"}, "[12]": {"molecular_target": "Tyrosine-protein kinase Mer (Homo sapiens) (UniProt Q12866)", "assay": "Binding affinity to wild-type human partial length MERTK (R557 to L884 residues) expressed in bacterial expression system assessed as residual binding level at 1 uM by Kinomescan method relative to control"}, "[13]": {"molecular_target": "Serine/threonine-protein kinase Nek1 (Homo sapiens) (UniProt Q96PY6)", "assay": "Binding affinity to wild-type human partial length NEK1 (M1 to K278 residues) expressed in bacterial expression system assessed as residual binding level at 1 uM by Kinomescan method relative to control"}, "[14]": {"molecular_target": "Serine/threonine-protein kinase Nek4 (Homo sapiens) (UniProt P51957)", "assay": "Binding affinity to wild-type human full length NEK4 (M1 to F841 residues) expressed in mammalian expression system assessed as residual binding level at 1 uM by Kinomescan method relative to control"}, "[15]": {"molecular_target": "Serine/threonine-protein kinase PAK 4 (Homo sapiens) (UniProt O96013)", "sequence (O96013 whole entry, looked up, the tested form may be a part)": "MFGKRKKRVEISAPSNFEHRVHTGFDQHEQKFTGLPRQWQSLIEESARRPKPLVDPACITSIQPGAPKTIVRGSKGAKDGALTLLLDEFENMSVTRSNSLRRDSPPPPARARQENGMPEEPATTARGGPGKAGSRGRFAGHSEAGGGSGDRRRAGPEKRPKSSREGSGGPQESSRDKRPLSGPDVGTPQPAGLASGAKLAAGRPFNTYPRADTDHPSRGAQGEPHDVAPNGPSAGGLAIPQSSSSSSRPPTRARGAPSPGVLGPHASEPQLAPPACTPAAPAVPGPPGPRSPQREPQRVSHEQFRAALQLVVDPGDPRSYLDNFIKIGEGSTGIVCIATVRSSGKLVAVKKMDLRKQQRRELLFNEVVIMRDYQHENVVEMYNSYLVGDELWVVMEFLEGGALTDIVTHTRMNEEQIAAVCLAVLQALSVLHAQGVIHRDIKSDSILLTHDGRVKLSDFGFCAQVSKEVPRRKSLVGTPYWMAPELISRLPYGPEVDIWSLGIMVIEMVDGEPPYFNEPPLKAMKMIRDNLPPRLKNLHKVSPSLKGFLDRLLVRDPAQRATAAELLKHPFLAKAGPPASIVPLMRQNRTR", "assay": "Binding affinity to wild-type human partial length PAK4 (Q144 to R438 residues) expressed in bacterial expression system assessed as residual binding level at 1 uM by Kinomescan method relative to control"}, "[16]": {"molecular_target": "Cyclin-dependent kinase 2 homolog (Plasmodium falciparum (isolate 3D7)) (UniProt P61075)", "sequence (P61075 whole entry, the tested form may be a part)": "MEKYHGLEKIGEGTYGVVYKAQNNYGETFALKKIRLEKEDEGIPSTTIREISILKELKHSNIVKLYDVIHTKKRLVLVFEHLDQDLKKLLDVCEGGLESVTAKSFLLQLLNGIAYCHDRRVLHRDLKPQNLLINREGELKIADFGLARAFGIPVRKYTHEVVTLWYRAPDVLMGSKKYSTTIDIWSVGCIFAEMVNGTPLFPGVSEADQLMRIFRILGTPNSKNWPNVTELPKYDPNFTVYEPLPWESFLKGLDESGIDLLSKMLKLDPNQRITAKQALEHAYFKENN", "assay": "Binding affinity to wild-type Plasmodium falciparum full length PK5 (M1 to N288 residues) expressed in mammalian expression system assessed as residual binding level at 1 uM by Kinomescan method relative to control"}, "[17]": {"molecular_target": "Phosphatidylinositol 3-kinase C2 domain-containing subunit gamma (Homo sapiens) (UniProt O75747)", "assay": "Binding affinity to wild-type human partial length PIK3C2G (M1 to I1446 residues) expressed in mammalian expression system assessed as residual binding level at 1 uM by Kinomescan method relative to control"}, "[18]": {"system": "Phosphatidylinositol 4,5-bisphosphate 3-kinase catalytic subunit alpha isoform (Homo sapiens), P42336 [Q546K]", "assay": "Binding affinity to human partial length PIK3CA Q546K mutant (R108 to N1068 residues) expressed in mammalian expression system assessed as residual binding level at 1 uM by Kinomescan method relative to control"}, "[19]": {"molecular_target": "Protein kinase C iota type (Homo sapiens) (UniProt P41743)", "sequence (P41743 whole entry, the tested form may be a part)": "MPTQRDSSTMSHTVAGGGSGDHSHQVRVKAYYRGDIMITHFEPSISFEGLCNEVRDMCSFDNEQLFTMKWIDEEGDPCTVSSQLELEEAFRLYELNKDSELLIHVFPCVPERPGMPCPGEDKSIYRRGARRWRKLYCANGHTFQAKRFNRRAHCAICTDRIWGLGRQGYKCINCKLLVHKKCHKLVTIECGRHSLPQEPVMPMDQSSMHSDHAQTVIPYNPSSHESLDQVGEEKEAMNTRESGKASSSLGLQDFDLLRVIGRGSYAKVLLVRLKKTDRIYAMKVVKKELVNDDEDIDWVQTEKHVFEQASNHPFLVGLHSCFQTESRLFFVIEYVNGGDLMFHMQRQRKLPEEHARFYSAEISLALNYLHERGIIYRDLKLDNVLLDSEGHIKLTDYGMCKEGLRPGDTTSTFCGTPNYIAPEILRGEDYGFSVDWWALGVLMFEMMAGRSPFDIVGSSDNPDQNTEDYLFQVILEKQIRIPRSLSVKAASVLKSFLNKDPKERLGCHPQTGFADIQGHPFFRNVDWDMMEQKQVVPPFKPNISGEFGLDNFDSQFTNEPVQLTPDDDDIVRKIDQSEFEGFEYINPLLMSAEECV", "assay": "Binding affinity to wild-type human partial length PRKCI (H215 to V587 residues) expressed in mammalian expression system assessed as residual binding level at 1 uM by Kinomescan method relative to control"}, "[20]": {"molecular_target": "Serine/threonine-protein kinase D1 (Homo sapiens) (UniProt Q15139)", "sequence (Q15139 whole entry, the tested form may be a part)": "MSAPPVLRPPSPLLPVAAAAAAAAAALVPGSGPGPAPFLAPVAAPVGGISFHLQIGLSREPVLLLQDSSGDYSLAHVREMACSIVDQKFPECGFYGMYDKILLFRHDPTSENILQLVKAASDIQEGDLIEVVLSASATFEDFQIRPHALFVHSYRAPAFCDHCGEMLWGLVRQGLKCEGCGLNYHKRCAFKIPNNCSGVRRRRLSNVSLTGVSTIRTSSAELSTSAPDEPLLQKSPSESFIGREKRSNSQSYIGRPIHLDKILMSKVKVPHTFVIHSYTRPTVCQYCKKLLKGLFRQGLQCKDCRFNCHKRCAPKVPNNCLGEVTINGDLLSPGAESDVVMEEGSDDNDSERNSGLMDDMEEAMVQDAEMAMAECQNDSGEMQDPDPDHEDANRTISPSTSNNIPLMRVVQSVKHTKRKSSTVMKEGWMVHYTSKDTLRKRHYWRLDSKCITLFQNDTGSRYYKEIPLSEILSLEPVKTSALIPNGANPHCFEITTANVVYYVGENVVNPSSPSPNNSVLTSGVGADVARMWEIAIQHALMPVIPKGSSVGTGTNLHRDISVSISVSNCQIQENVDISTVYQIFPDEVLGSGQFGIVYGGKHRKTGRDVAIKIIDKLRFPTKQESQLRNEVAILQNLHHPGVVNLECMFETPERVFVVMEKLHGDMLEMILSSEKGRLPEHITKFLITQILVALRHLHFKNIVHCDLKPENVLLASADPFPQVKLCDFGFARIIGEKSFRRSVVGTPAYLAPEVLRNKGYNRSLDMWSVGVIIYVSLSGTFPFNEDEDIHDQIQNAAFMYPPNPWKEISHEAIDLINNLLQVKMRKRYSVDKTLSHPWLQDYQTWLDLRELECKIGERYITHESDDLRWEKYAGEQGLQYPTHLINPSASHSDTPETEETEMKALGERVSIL", "assay": "Binding affinity to wild-type human partial length PRKD1 (G551 to E870 residues) expressed in bacterial expression system assessed as residual binding level at 1 uM by Kinomescan method relative to control"}, "[21]": {"molecular_target": "Proto-oncogene tyrosine-protein kinase receptor Ret (Homo sapiens) (UniProt P07949)", "assay": "Binding affinity to wild-type human partial length RET (E713 to D1014 residues) expressed in bacterial expression system assessed as residual binding level at 1 uM by Kinomescan method relative to control"}, "[22]": {"system": "Proto-oncogene tyrosine-protein kinase receptor Ret (Homo sapiens), P07949 [M918T]", "assay": "Binding affinity to human partial length RET M918T mutant (E713 to D1014 residues) expressed in bacterial expression system assessed as residual binding level at 1 uM by Kinomescan method relative to control"}, "[23]": {"molecular_target": "Serine/threonine-protein kinase SIK2 (Homo sapiens) (UniProt Q9H0K1)", "assay": "Binding affinity to wild-type human full length SIK2 (M1 to N926 residues) expressed in bacterial expression system assessed as residual binding level at 1 uM by Kinomescan method relative to control"}, "[24]": {"molecular_target": "STE20/SPS1-related proline-alanine-rich protein kinase (Homo sapiens) (UniProt Q9UEW8)", "assay": "Binding affinity to wild-type human partial length STK39 (P43 to I357 residues) expressed in mammalian expression system assessed as residual binding level at 1 uM by Kinomescan method relative to control"}},
  "data": [
    {"smiles": "CC(C)Nc1sc(C(=O)c2ccc(Cl)s2)c(N)c1C#N", "values": [
      {"measurement": "Activity", "setting": "[1]", "result": 100, "unit": "%"},
      {"measurement": "Activity", "setting": "[2]", "result": 68, "unit": "%"},
      {"measurement": "Activity", "setting": "[3]", "result": 91, "unit": "%"},
      {"measurement": "Activity", "setting": "[4]", "result": 100, "unit": "%"},
      {"measurement": "Activity", "setting": "[5]", "result": 100, "unit": "%"},
      {"measurement": "Activity", "setting": "[6]", "result": 60, "unit": "%"},
      {"measurement": "Activity", "setting": "[7]", "result": 95, "unit": "%"},
      {"measurement": "Activity", "setting": "[8]", "result": 100, "unit": "%"},
      {"measurement": "Activity", "setting": "[9]", "result": 100, "unit": "%"},
      {"measurement": "Activity", "setting": "[10]", "result": 100, "unit": "%"},
      {"measurement": "Activity", "setting": "[11]", "result": 100, "unit": "%"},
      {"measurement": "Activity", "setting": "[12]", "result": 100, "unit": "%"},
      {"measurement": "Activity", "setting": "[13]", "result": 79, "unit": "%"},
      {"measurement": "Activity", "setting": "[14]", "result": 80, "unit": "%"},
      {"measurement": "Activity", "setting": "[15]", "result": 88, "unit": "%"},
      {"measurement": "Activity", "setting": "[16]", "result": 94, "unit": "%"},
      {"measurement": "Activity", "setting": "[17]", "result": 84, "unit": "%"},
      {"measurement": "Activity", "setting": "[18]", "result": 100, "unit": "%"},
      {"measurement": "Activity", "setting": "[19]", "result": 100, "unit": "%"},
      {"measurement": "Activity", "setting": "[20]", "result": 97, "unit": "%"},
      {"measurement": "Activity", "setting": "[21]", "result": 97, "unit": "%"},
      {"measurement": "Activity", "setting": "[22]", "result": 86, "unit": "%"},
      {"measurement": "Activity", "setting": "[23]", "result": 92, "unit": "%"},
      {"measurement": "Activity", "setting": "[24]", "result": 72, "unit": "%"}
    ]}
  ]
}
